According to US20170273922A1, “UREA AND BIS-UREA BASED COMPOUNDS AND ANALOGUES THEREOF USEFUL IN THE TREATMENT OF ANDROGEN RECEPTOR MEDIATED DISEASES OR DISORDERS” (THE ROYAL INSTITUTION FOR THE ADVACEMENT OF LEARNING/MCGILL …, priority 2014, published 2017):

Assays:
Type in all cases: cell-based
[1] = system: LNCaP cells; assay: MTT assay (cytotoxicity), LNCaP cells; details: 72 h, Table 2.2
Protocol: (§1) MTT assays: LNCaP, 22Rv1, Du145, H1975, A549, MB231 and MCF-7 cells are maintained in RPMI 1640 supplemented with 10% FBS. Cells were seeded at a density of 6-7×10^3 cells per well in 96-well plates. After overnight incubation, cells in fresh RPMI 1640 supplemented with 10% FBS were exposed to DMSO vehicle control or test compounds at designated concentrations for 72 h. Viable cells were evaluated by MTT assays. Experiments were performed in triplicate and repeated at least twice.

[2] = system: 22Rv1 cells; assay: MTT assay (cytotoxicity), 22Rv1 cells; details: 72 h, Table 2.2
Protocol: as §1

[3] = system: DU145 cells; assay: MTT assay (cytotoxicity), DU145 cells; details: 72 h, Table 2.2
Protocol: as §1

[4] = MTT assay (cytotoxicity), LNCaP cells; details: human, LNCaP cells, 72 h
Protocol: as §1

[5] = MTT assay (cytotoxicity), 22Rv1 cells; details: human, 22Rv1 cells, 72 h
Protocol: as §1

[6] = MTT assay (cytotoxicity), DU145 cells; details: human, DU145 cells
Protocol: as §1

Structure (SMILES): O=C(N/C=C/c1cccc(F)c1)Nc1ccc([N+](=O)[O-])c(C(F)(F)F)c1 [Compound 412]
- IC50 [1]: 18.8 µM
- IC50 [2]: > 20 µM

Structure (SMILES): O=C(N/C=C/c1cccc(F)c1)Nc1cccc(C(F)(F)F)c1 [Compound 414]
- IC50 [1]: 3.8 µM
- IC50 [2]: 8.2 µM
- IC50 [3]: 7.8 µM

Structure (SMILES): O=C(N/C=C/c1ccccc1)Nc1cccc(C(F)(F)F)c1 [Compound 415]
- IC50 [1]: 6.6 µM
- IC50 [2]: 11 µM
- IC50 [3]: 14 µM

Structure (SMILES): N#Cc1ccc(NC(=O)N/C=C/c2cccc(C(F)(F)F)c2)cc1 [Compound 416]
- IC50 [1]: 1.6 µM
- IC50 [2]: 3.6 µM
- IC50 [3]: 2.6 µM

Structure (SMILES): COc1cccc(NC(=O)N/C=C/c2cccc(C(F)(F)F)c2)c1 [Compound 417]
- IC50 [1]: 14.6 µM
- IC50 [2]: 10.8 µM
- IC50 [3]: 12.2 µM

Structure (SMILES): O=C(N/C=C/c1cccc(C(F)(F)F)c1)Nc1ccc2c(c1)OCO2 [Compound 418]
- IC50 at 72 h ([4]; Table 2.3): > 20 µM
- IC50 at 72 h ([5]; Table 2.3): > 20 µM
- IC50 at 72 h ([6]; Table 2.3): > 20 µM

Structure (SMILES): O=C(N/C=C/c1cccs1)Nc1ccc([N+](=O)[O-])c(C(F)(F)F)c1 [Compound 419]
- IC50 at 72 h ([4]; Table 2.4): 3.2 µM
- IC50 at 72 h ([5]; Table 2.4): 4.1 µM
- IC50 at 72 h ([6]; Table 2.4): 6.9 µM

Structure (SMILES): O=C(N/C=C/c1cccs1)Nc1cccc(C(F)(F)F)c1 [Compound 420]
- IC50 at 72 h ([4]; Table 2.4): 6.4 µM
- IC50 at 72 h ([5]; Table 2.4): 12.3 µM
- IC50 at 72 h ([6]; Table 2.4): 12.3 µM

Structure (SMILES): N#Cc1ccc(NC(=O)N/C=C/c2ccc(C(F)(F)F)cc2)cc1C(F)(F)F [Compound 421]
- IC50 [1]: 1.4 µM
- IC50 [2]: 7.2 µM
- IC50 [3]: 3.4 µM

Structure (SMILES): N#Cc1ccc(NC(=O)N/C=C/c2cccs2)cc1 [Compound 424]
- IC50 at 72 h ([4]; Table 2.4): 5 µM
- IC50 at 72 h ([5]; Table 2.4): 16.7 µM
- IC50 at 72 h ([6]; Table 2.4): 14.4 µM

Structure (SMILES): O=C(N/C=C/c1ccccc1C(F)(F)F)Nc1ccc2c(c1)OCO2 [Compound 427]
- IC50 at 72 h ([4]; Table 2.3): 9.5 µM
- IC50 at 72 h ([6]; Table 2.3): 19.2 µM

Structure (SMILES): COc1cccc(NC(=O)N/C=C/c2ccccc2C(F)(F)F)c1 [Compound 429]
- IC50 [1]: 9.1 µM
- IC50 [2]: 16.4 µM
- IC50 [3]: 14.9 µM

Structure (SMILES): COc1cccc(/C=C/NC(=O)Nc2cccc(OC)c2)c1 [Compound 430]
- IC50 [1]: > 20 µM
- IC50 [2]: > 20 µM

Structure (SMILES): COc1cccc(/C=C/NC(=O)Nc2ccc3c(c2)OCO3)c1 [Compound 431]
- IC50 at 72 h ([4]; Table 2.3): 17.3 µM
- IC50 at 72 h ([5]; Table 2.3): > 20 µM
- IC50 at 72 h ([6]; Table 2.3): > 20 µM

Structure (SMILES): O=C(N/C=C/c1ccc(C(F)(F)F)cc1)Nc1ccc2c(c1)OCO2 [Compound 432]
- IC50 at 72 h ([4]; Table 2.3): > 20 µM
- IC50 at 72 h ([5]; Table 2.3): > 20 µM
- IC50 at 72 h ([6]; Table 2.3): > 20 µM

Structure (SMILES): N#Cc1ccc(NC(=O)N/C=C/c2cccc(F)c2)cc1C(F)(F)F [Compound 433]
- IC50 [1]: 1.9 µM
- IC50 [2]: 3.2 µM
- IC50 [3]: 3.9 µM

Structure (SMILES): O=C(N/C=C/c1ccco1)Nc1ccc([N+](=O)[O-])c(C(F)(F)F)c1 [Compound 434]
- IC50 at 72 h ([4]; Table 2.4): 2 µM
- IC50 at 72 h ([5]; Table 2.4): 5.6 µM
- IC50 at 72 h ([6]; Table 2.4): 7.8 µM

Structure (SMILES): CN(C)c1ccc(NC(=O)N/C=C/c2cccc(C(F)(F)F)c2)cc1 [Compound 435]
- IC50 [1]: 13.1 µM
- IC50 [2]: > 20 µM
- IC50 [3]: 20 µM

Structure (SMILES): O=C(N/C=C/c1cc(C(F)(F)F)ccc1C(F)(F)F)Nc1ccc([N+](=O)[O-])c(C(F)(F)F)c1 [Compound 436]
- IC50 [1]: 0.5 µM
- IC50 [2]: 0.8 µM
- IC50 [3]: 0.7 µM

Structure (SMILES): O=C(N/C=C/c1cccc(OC(F)(F)F)c1)Nc1ccc([N+](=O)[O-])c(C(F)(F)F)c1 [Compound 437]
- IC50 [1]: 1.6 µM
- IC50 [2]: 2.7 µM
- IC50 [3]: 3 µM

Structure (SMILES): O=C(N/C=C/c1cc(C(F)(F)F)cc(C(F)(F)F)c1)Nc1ccc([N+](=O)[O-])c(C(F)(F)F)c1 [Compound 438]
- IC50 [1]: 0.5 µM
- IC50 [2]: 0.6 µM
- IC50 [3]: 0.9 µM

Structure (SMILES): O=C(N/C=C/c1cccc(C(F)(F)F)c1)Nc1cccc(NC(=O)N/C=C/c2cccc(C(F)(F)F)c2)c1 [Compound 440]
- IC50 at 72 h ([4]; Table 5.1): 1.7 µM
- IC50 at 72 h ([5]; Table 5.1): 4.9 µM
- IC50 at 72 h ([6]; Table 5.1): 5.1 µM

Structure (SMILES): COc1cc([N+](=O)[O-])ccc1NC(=O)N/C=C/c1cccc(C(F)(F)F)c1 [Compound 441]
- IC50 [1]: 4.8 µM
- IC50 [2]: 8.3 µM
- IC50 [3]: 6.7 µM

Structure (SMILES): O=C(N/C=C/c1ccc2c(c1)OCO2)Nc1ccc([N+](=O)[O-])c(C(F)(F)F)c1 [Compound 444]
- IC50 at 72 h ([4]; Table 2.4): 14.6 µM
- IC50 at 72 h ([5]; Table 2.4): 17.5 µM
- IC50 at 72 h ([6]; Table 2.4): 14 µM

Structure (SMILES): Cc1ccccc1NC(=O)N/C=C/c1cccc(C(F)(F)F)c1 [Compound 445]
- IC50 [1]: 4.1 µM
- IC50 [2]: 5.2 µM
- IC50 [3]: 4.8 µM

Structure (SMILES): O=C(N/C=C/c1cccc(C(F)(F)F)c1)Nc1ccc(-n2ccnc2)cc1 [Compound 446]
- IC50 [1]: 11.1 µM
- IC50 [2]: 18.4 µM
- IC50 [3]: > 20 µM
